# Measurements as given in PMC4286809, “Crystallographic and spectroscopic snapshots reveal a dehydrogenase in action” (Nature Communications, 2015).
# T1: 2-aminomuconate-6-semialdehyde dehydrogenase (AMSDH) (Pseudomonas fluorescens, UniProt Q83V33, E268A)
# T1 construct: gene nbaE
# T1 sequence (Q83V33 1-500 E268A): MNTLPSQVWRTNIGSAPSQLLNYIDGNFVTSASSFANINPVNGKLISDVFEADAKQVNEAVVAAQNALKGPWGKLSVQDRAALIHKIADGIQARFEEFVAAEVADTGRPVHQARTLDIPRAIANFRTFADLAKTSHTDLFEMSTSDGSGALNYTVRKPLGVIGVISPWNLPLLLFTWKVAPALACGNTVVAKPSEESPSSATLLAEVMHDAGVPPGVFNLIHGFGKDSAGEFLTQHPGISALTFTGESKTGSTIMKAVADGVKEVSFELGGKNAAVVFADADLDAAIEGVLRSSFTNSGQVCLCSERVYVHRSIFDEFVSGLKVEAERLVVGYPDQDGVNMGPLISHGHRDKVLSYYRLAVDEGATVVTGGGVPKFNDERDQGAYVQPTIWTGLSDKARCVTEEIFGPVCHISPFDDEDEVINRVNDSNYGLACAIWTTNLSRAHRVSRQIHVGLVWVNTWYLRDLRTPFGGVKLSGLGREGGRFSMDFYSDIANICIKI
# T2: 2-aminomuconate-6-semialdehyde dehydrogenase (AMSDH) (Pseudomonas fluorescens, UniProt Q83V33, R120A)
# T2 construct: gene nbaE
# T2 sequence (Q83V33 1-500 R120A): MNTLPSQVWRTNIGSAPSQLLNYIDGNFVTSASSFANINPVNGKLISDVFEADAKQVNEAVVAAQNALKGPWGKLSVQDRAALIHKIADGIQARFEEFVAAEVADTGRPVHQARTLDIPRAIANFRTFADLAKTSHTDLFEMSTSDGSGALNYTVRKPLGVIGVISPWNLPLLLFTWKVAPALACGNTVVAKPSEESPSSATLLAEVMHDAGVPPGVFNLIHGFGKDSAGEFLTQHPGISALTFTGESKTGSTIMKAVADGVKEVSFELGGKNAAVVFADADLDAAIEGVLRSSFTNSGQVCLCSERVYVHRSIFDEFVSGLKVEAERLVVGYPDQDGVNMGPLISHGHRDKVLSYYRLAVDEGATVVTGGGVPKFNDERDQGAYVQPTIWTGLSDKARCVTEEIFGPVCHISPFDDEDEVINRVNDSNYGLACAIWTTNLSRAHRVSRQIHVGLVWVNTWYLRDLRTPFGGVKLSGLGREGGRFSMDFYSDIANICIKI
# T3: 2-aminomuconate-6-semialdehyde dehydrogenase (AMSDH) (Pseudomonas fluorescens, UniProt Q83V33)
# T3 construct: gene nbaE
# T3 sequence (Q83V33 1-500): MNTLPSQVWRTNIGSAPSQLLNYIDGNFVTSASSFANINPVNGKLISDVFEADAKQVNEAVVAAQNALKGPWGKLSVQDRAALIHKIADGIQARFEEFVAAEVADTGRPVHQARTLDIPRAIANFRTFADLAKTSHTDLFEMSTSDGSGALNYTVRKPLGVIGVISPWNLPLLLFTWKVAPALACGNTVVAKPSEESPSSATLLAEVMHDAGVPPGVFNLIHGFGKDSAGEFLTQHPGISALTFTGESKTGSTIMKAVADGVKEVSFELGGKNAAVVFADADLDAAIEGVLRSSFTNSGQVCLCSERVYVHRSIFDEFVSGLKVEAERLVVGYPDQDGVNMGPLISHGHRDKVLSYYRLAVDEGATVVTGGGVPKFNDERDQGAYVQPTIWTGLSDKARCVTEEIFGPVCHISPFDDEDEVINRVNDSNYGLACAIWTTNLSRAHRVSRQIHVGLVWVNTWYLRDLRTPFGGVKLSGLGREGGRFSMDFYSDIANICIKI
# What was measured:
# [1] = biological target: T1, 2-aminomuconate-6-semialdehyde dehydrogenase (AMSDH); test: crystal structures of thiohemiacetal (4OU2) and thioacyl (4OUB) adducts; ESI mass spectrometry; absorption titration; format: binding
# [2] = biological target: T4, 2-aminomuconate-6-semialdehyde dehydrogenase (AMSDH) (Pseudomonas fluorescens, UniProt Q83V33, R464A); test: steady-state kinetics; substrate inhibition Ki (Km […]); format: biochemical
# T4 construct: gene nbaE
# [3] = biological target: T2, 2-aminomuconate-6-semialdehyde dehydrogenase (AMSDH); test: steady-state kinetics (Km, lower bound); format: biochemical
# [4] = biological target: T3, 2-aminomuconate-6-semialdehyde dehydrogenase (AMSDH); test: crystal structure of co-crystallized binary complex ([…] Å); format: binding
# purified protein = substrate: O=C/C=C/C=C(/O)C(=O)O; test: purified protein; format: biochemical, Pseudomonas fluorescens; conditions: NAD+ active site; bifurcated hydrogen bonds with Arg120 and Arg464; C6 becomes covalently bound to Cys302 in the later thioacyl intermediate (4NPI)
# [5] = biological target: the molecule itself; test: crystal structure; wild-type AMSDH, ligand-free, with NAD+, with NAD+ and 2-AMS or 2-HMS, and as thioacyl intermediate; space group P212121; four polypeptides per asymmetric unit
molecule,measurement,setting,value
"O=C/C=C/C=C(/O)C(=O)O [2-HMS, 2-hydroxymuconate-6-semialdehyde]",crystal structures of thiohemiacetal (4OU2) and thioacyl (4OUB) adducts; ESI mas,[1],a continuous electron density between Cys302-SG and 2-HMS-C6 is observed
same,Ki,[2],~6 µM
same,Km,[3],> 446 µM
"NC(=O)c1ccc[n+]([C@@H]2O[C@H](COP(=O)([O-])OP(=O)(O)OC[C@H]3O[C@@H](n4cnc5c(N)ncnc54)[C@H](O)[C@@H]3O)[C@@H](O)[C@H]2O)c1 [NAD+, NAD^+]",crystal structure of co-crystallized binary complex (2.00 Å),[4],"an NAD^+ molecule is present in an extended, anti-conformation in the amino-terminal, co-substrate-binding domain of each monomer"
"2-aminomuconate-6-semialdehyde dehydrogenase from Pseudomonas fluorescens, wild type (enzyme, UniProt Q83V33 1-500, looked up, 2-aminomuconate-6-semialdehyde dehydrogenase (AMSDH), Pseudomonas fluorescens; also called AMSDH; wild-type AMSDH; source: E. coli overexpression system, purified) MNTLPSQVWRTNIGSAPSQLLNYIDGNFVTSASSFANINPVNGKLISDVFEADAKQVNEAVVAAQNALKGPWGKLSVQDRAALIHKIADGIQARFEEFVAAEVADTGRPVHQARTLDIPRAIANFRTFADLAKTSHTDLFEMSTSDGSGALNYTVRKPLGVIGVISPWNLPLLLFTWKVAPALACGNTVVAKPSEESPSSATLLAEVMHDAGVPPGVFNLIHGFGKDSAGEFLTQHPGISALTFTGESKTGSTIMKAVADGVKEVSFELGGKNAAVVFADADLDAAIEGVLRSSFTNSGQVCLCSERVYVHRSIFDEFVSGLKVEAERLVVGYPDQDGVNMGPLISHGHRDKVLSYYRLAVDEGATVVTGGGVPKFNDERDQGAYVQPTIWTGLSDKARCVTEEIFGPVCHISPFDDEDEVINRVNDSNYGLACAIWTTNLSRAHRVSRQIHVGLVWVNTWYLRDLRTPFGGVKLSGLGREGGRFSMDFYSDIANICIKI",Km,purified protein,10.4 ± 0.2 µM
same,stoichiometry N,[5],4
